Tests used:
[1] = test system: Panc-1 human pancreatic cancer cells; experiment: cancer cell adhesion, visual retraction of cells; type: cell-based; details: 24 hours, light microscopy
Method: (§1) In these experiments, Panc-1 human pancreatic cancer cells were maintained in Dulbecco's minimum essential medium supplemented with 10% fetal calf serum at 37° C. in 5% CO2 in air. All culture reagents were purchased from Invitrogen (Burlington, ON). Panc-1 cells (ATCC CRL-1469) were plated at 20,000 cells per well of a 4-well tissue culture slide (NalgeNunc, Naperville, Ill.). After 24 hours of culture, cells were treated for 24 hours with medium containing varying concentrations of compounds 15 and 16 dissolved in dimethylsulfoxide (DMSO; final concentration of 1% DMSO in the medium), or 1% DMSO alone in the medium and then fixed with 4% paraformaldehyde dissolved in phosphate buffered saline and stained with hematoxylin. Disruption of cell adhesion was determined visually within 24 hours, by observing retraction of the cells from one another.

[2] = test system: Panc-1 human pancreatic cancer cells; experiment: cell death, trypan blue exclusion count; type: cell-based; details: 24 hours
Method: as §1
In order to determine the effect of the compounds on cell death, the medium was aspirated from the treated and untreated cultures and the non-adherent cells collected by centrifugation (1000 rpm for 5 min). The cells were resuspended in phosphate buffered saline and combined with trypan blue (Sigma). Cells were then put in a hemocytometer and the number of cells that excluded the trypan blue counted using a microscope to determine the number of live cells.

[3] = test system: 3D spheroid N-cadherin mouse fibroblast (LN5) cells; experiment: hanging drop 3D spheroid cell culture assay; type: cell-based; details: hanging drops incubated 48 h
Method: In these experiments, a total of 2×10^6 originally noncohesive embryonic mouse L929 fibroblasts (L cells) were transfected by electroporation in 400 μl transfection medium (RPMI 1640, 1% dextrose, 1 mM β-mercaptoethanol) with 40 μg pMiwcN chicken N-cadherin expression vector (Miyatani, S., et al., Science, 1989, 245, 631-635; Fujimori T., et al., Development, 1990, 110. 97-104). Neomycin resistance (pwlneo, GIBCO) was included for G418 selection. Transfected cells were diluted 1/100 and placed in medium containing 800 μg/ml G418 (GIBCO). Resistant cells were grown to confluence, detached by trypsin/Ca^2+ treatment, and stained with an anti-chicken N-cadherin antibody (NCD2, Zymed) on ice for 45 min. After several washes in Hanks' balanced salt solution, cells were mixed with a fluorescein isothiocyanate-conjugated secondary antibody and placed on ice for 30 min. N-cadherin-expressing cells were then autocloned into 96-well plates by using the CloneCyt Integrated Deposition System (Becton-Dickinson Immunocytometry Systems). Positive clones were reanalyzed by FACS and the L cell line LN5 was propagated for these studies.
The 3D spheroids were generated as follows. Cells were removed from near-confluent plates with TC (0.05% trypsin and 2 mM Ca^2+ in Hank's solution for 5-10 minutes), washed once with 1 mL 4° C. Hank's solution, and suspended at a concentration of 2.5×10^6 cells/ml in complete MEM supplemented with 2 mM CaCl2 and varying concentrations of N-cadherin antagonists (Crocus Laboratories, Montreal, Quebec, Canada). The antagonists were compound 15 (MW=499.43) and compound 16 (MW=499.43). Stock solutions of the antagonists were prepared by dissolving the antagonists in DMSO at concentrations of 30 mM. Controls were made by suspending the cells as described above in the absence of antagonists with only the respective amount of DMSO added. Drops of the cell suspensions (10 microliters each) were deposited on the underside of a 10 cm tissue culture dish lid. The lid was then inverted and placed on dish containing 5 ml of PBS for hydration. Hanging drops were incubated under tissue culture conditions for 48 h, allowing the cells to coalesce at the base of the droplets and to form multi-layer aggregates. The tissue culture dish lid was then removed and the medium was gently aspirated. Aggregates (N=10-20) where then photographed under 4× lens and cell area was analyzed using ImageJ. Statistical differences were determined using ANOVA and Tukey's multiple comparison test.
Each of the antagonists tested from Crocus Laboratories contained cadherin antagonist properties at different potency levels. We determined the approximate minimum concentration needed for an anti-adhesion dose response on 3D spheroid N-cadherin mouse fibroblast (LN5) cells. […]

[4] = test system: cerebellar neurons on 3T3 fibroblasts that express N-cadherin; experiment: neurite outgrowth assay; type: cell-based, mouse; details: 10 micromolar; 18 hours culture
Method: Within a representative neurite outgrowth assay, neurons are cultured on a monolayer of cells (e.g., 3T3 fibroblasts) that express N-cadherin. […] For example, neurons can be cultured on monolayers of 3T3 cells transfected with cDNA encoding N-cadherin essentially as described by Doherty, P. and Walsh, F. S., Curr. Op. Neurobiol. 4:49-55, 1994; Williams, E. J., et al., Neuron 13:583-594, 1994; Hall, H., et al., Cell Adhesion and Commun. 3:441-450, 1996; Doherty, P. and Walsh, F. S., Mol. Cell. Neurosci. 8:99-111, 1994; and Safell, J. L., et al., Neuron 18:231-242, 1997. Briefly, monolayers of control 3T3 fibroblasts and 3T3 fibroblasts that express N-cadherin are established by overnight culture of 80,000 cells in individual wells of an 8-chamber well tissue culture slide. 3000 cerebellar neurons isolated from post-natal day 3 mouse brains are cultured for 18 hours on the various monolayers in control media (SATO/2% FCS), or media supplemented with various concentrations of the modulating agent. The cultures are then fixed and stained for GAP43 which specifically binds to the neurons and their neurites. The length of the longest neurite on each GAP43 positive neuron is measured by computer assisted morphometry.

[5] = test system: classical cadherin-expressing cells; experiment: cell adhesion assay, classical cadherin mediated cell adhesion; type: cell-based; details: 1 micromolar; determined visually within 24 hours
Method: In these experiments, classical cadherin-expressing cells are plated under standard conditions that, in the absence of cell adhesion antagonist, permit cell adhesion. Disruption of cell adhesion is determined visually within 24 hours, by observing retraction of the cells from one another.

[6] = test system: human cancer-associated fibroblast (CAF010415); experiment: cancer-associated fibroblast viability, CELLTITER GLO; type: cell-based; details: in vitro; measured after 24 h and 48 h
Method: In this study, CAFs were isolated as described by Orr et al, (On, B., et al., Oncogene, 31, 1130-1142, 2012). The cells were grown in Dulbecco's modified Eagle medium (Multicell) with 10% fetal bovine serum. CAFs are human primary fibroblasts, grown from patient prostate tumor samples. These cells are not an established cell line, nor are they immortalized, and at some point they will senesce.
In these experiments, cells were seeded in a 96-well plate (Corning) (3,000 cells/well). The next day, the drug was added at the indicated concentration (FIG. 8). After 24 h and 48 h cell viability was measured using CELLTITER GLO® (Promega, Madison, Wis.) according to the manufacturer's protocol. All assays were repeated at least 3 times in triplicate each time. The results are depicted in FIG. 8 as SEM. […] The N-cadherin antagonist compound 15 thus decreases the viability of human pancreatic cancer (PC) cells and CAFs. These observations indicate that N-cadherin antagonists can be used to treat PC.

[7] = test system: human fibroblast-like synoviocytes (FLS); experiment: fibroblast-like synoviocyte cell adhesion; type: cell-based; details: 24 hours treatment
Method: In these experiments, human fibroblast-like synoviocytes (FLS) (ScienCell Research Laboratories (Carlsbad, Calif.; Cat #4700) were maintained in complete Synoviocyte media (ScienCell Research Laboratories Carlsbad, Calif. Cat #4701) at 37° C. in 5% CO2 in air. FLS cells were plated at 1.5×10^4 cells per well of a 4-well tissue culture slide (NalgeNunc, Naperville, Ill.). After 24 hours of culture, cells were treated for 24 hours with medium containing varying concentrations of compounds 15 dissolved in dimethylsulfoxide (DMSO; final concentration of 1% DMSO in the medium), or 1% DMSO alone in the medium. The cells were then fixed with 4% paraformaldehyde dissolved in phosphate buffered saline and stained with hematoxylin. Disruption of cell adhesion was determined visually within 24 hours, by observing retraction of the cells from one another.

[8] = test system: female mice; experiment: ovulation / corpus luteum formation in hormone-stimulated mice; type: in vivo, mouse; details: 50 mg/kg i.p. twice per day
Method: In these experiments, two groups of female mice (n=6 per group) were injected i.p. (50 μL per injection) twice per day with either vehicle control (saline containing 7.5% DMSO) or vehicle containing compound 15 (50 mg/kg) at the days indicated in FIG. 10. The mice were injected with hormones to stimulate ovulation. FIG. 10 is a schematic showing the injection of hormones into mice to cause follicle maturation and injection of compound 15.

[9] = test system: 5TGM1 mouse MM plasma cells; experiment: C57BL/KaLwRij murine model of Multiple Myeloma, tumor burden; type: in vivo; details: 50 mg/kg/day i.p. for 5 days; assessed at days 14, 21 and 28
Method: In these experiments, 5TGM1 mouse MM plasma cells (expressing a dual GFP and luciferase reporter construct (Noll Neoplasia 2014; Cheong 2015)) were maintained in Iscove's modified Dulbecco's medium (IMDM) with 20% fetal calf serum (FCS; Thermo Fisher Scientific, Waltham, Mass., USA) and supplements.
C57Bl/KaLwRij mice (aged 6-8 weeks) were used for all in vivo studies. For MM tumor studies, mice were inoculated with 5×10^5 5 TGM1 cells in 100 μl phosphate buffered saline by intravenous injection (i.v.) via the tail vein. Total body tumor burden was assessed at days 14, 21 and 28 using the Xenogen IVIS, as previously described (Mrozik, K. M., et al., 2015, Br. J. Haematol. 171, 387-399.). All animals used for therapy studies were randomized by age, sex and, where appropriate, tumor burden. Compound 15 was dissolved at a concentration of 10 mg/ml in saline containing 40% 2-hydroxyproprol-β-cyclodextrin. Either compound 15 (50 mg/kg/day) (N=8) or vehicle (40% 2-hydroxyproprol-β-cyclodextrin in saline) (N=7) alone was administered to mice i.p. commencing 15 minutes prior to 5TGM1 cell injection for 5 days. […] Compound 15 is therefore effective for treatment of MM.

[10] = test system: Myeloma cells MM.1S; experiment: multiple myeloma cell viability, high content screening of live cells; type: cell-based; details: 24 h post-treatment
Method: Myeloma cells MM.1S (American Type Culture Collection, Manassas, Va., USA) were cultured in RPMI-1640 medium supplemented with 10% fetal bovine serum (Thermo Fisher Scientific, Waltham, Mass., USA), 100 U/mL of penicillin, and […] of streptomycin. The cells were grown at 37° C. in a humidified incubator with 5% CO2.
In these experiments, MM.1S cells were pre-labeled with CellTrace Violate (Thermo Fisher Scientific), plated on 96-well plates (1.5×10^5 cells/well) and treated with varying concentrations of compound 15 (1-100 μM) or DMSO (vehicle control). High content screening (CellInsight CX5, Thermo Fisher Scientific) was utilized to quantify the number of live cells (i.e. calcein AM+ cells) 24 h post-treatment. FIG. 13 presents photomicrographs (upper panel) and quantitative data (lower panel) of cells treated with compound 15.

Row | SMILES | disruption of cell adhesion ([1]; 0.1 μM) | disruption of cell adhesion ([1]; 1 μM) | disruption of cell adhesion ([1]; 10 μM) | disruption of cell adhesion ([1]; 100 μM) | cell death in comparison to the control ([2]; 1 μM) | cell death in comparison to the control ([2]; 10 μM) | cell death in comparison to the control ([2]; 100 μM) | concentration at which complete disruption occurred [3] [µM] | minimum concentration required to observe cohesion disruption [3] [µM] | decrease in the mean neurite length relative to the length in the absence of modulating agent [4] | disruption of cell adhesion (retraction of the cells from one another) [5] | cell viability [6] | concentration range in which effects on FLS cells (disruption of cell adhesion) can be seen [7] [µM] | corpus luteum formation (luteinized CL-like structures in ovaries) [8] | ovulation [8] | total body tumour burden [9] | number of live cells (calcein AM+) on the substratum ([10]; 10 μM) | number of live cells (calcein AM+) on the substratum ([10]; 100 μM)
1 | COc1ccc(OC[C@@H](O)CNC2CCN(C[C@@H](O)COc3ccc(Cl)c(Cl)c3)CC2)cc1 [Compound 16, (R)-1-(3,4-Dichlorophenoxy)-3-(4-((S)-2-hydroxy-3-(4-methoxyphenoxy)propylamino)piperidin-1-yl)propan-2-ol] | disrupted cell adhesion | disrupted cell adhesion | disrupted cell adhesion | disrupted cell adhesion | caused cell death | caused cell death | caused cell death | 75 | 50 |  |  |  |  |  |  |  |  | 
2 | COc1ccc(OC[C@@H](O)CNC2CCN(C[C@H](O)COc3ccc(Cl)c(Cl)c3)CC2)cc1 [Compound 15, (S)-1-(3,4-Dichlorophenoxy)-3-(4-((S)-2-hydroxy-3-(4-methoxyphenoxy)propylamino)piperidin-1-yl)propan-2-ol] | not disrupted | disrupted cell adhesion | disrupted cell adhesion | disrupted cell adhesion |  | caused cell death | caused cell death | 75 | 40 | at least 50% | disruption of cell adhesion is observed | decreases human cancer-associated fibroblast (CAF010415) viability | 5 to 50 | fewer clearly luteinized CL-like structures | inhibits ovulation | caused a decrease in tumour burden | caused a decrease in the number of live cells | caused a decrease in the number of live cells
